One data set relates to Listeria innocua. The data set is described as follows: Attached cells challenge test on produce leaves (Example 1). The data set is classed as cell-based.
Data set [1] has as its system E. coli K-12 (ATCC 25253). The data set can be described thus: Attached cells on chicken wing skin (Example 8). Format: cell-based. As to conditions: Middle chicken wing skin, 10.5 min. The procedure:
Inoculum preparation: ATCC freeze dried culture was rehydrated in 10 mL of sterilized TSB and mixed homogeneously. 0.1 mL of the stock solution was transferred to 10 mL of TSB and incubated at 37C for 24 h. Enrichment was streaked to confirm purity. 2 mL of the enriched stock was transferred to 200 mL of TSB and incubated at 37C for 24 h for E. coli K-12 (ATCC 25253) (EC) resulting in ˜10^8 cfu/mL stationary phase culture stock. The stock was cooled at 4C for 1 h. Microbial population of the stationary phase stock culture was enumerated by means of serial dilution with 9-mL Butterfield phosphate buffer tubes and spread plating on Tryptic Soy Agar (TSA) pre-poured agar plates for EC
Chicken wing surface inoculation: The 200 mL ˜10^8cfu/mL stock culture solution was homogeneously mixed by shaking and swirling the Erlenmeyer flask. The 200 mL culture was separated into 4 centrifuge tubes (50 mL each) and centrifuged at 10,000 rpm and 4C for 15 min. The stock culture pellet was re-suspended with 5 mL of 5% Horse Serum. All the re-suspended cultures from the four centrifuge tubes were combined to form 20 mL˜10^9 cfu/mL inoculating stock culture. The chicken middle wing was pat dried by paper towel. A permanent marker was used to mark a 2.5 cm×2.5 cm square at the middle of the flat surface of the chicken wing for inoculation. 50 uL inoculum in the form of 2 uL droplets were spiked onto the marked square on the chicken wing skin. The inoculated chicken wing was placed into a sterile polypropylene basket. The spiked chicken wing inside the polypropylene basket was dried inside a biological safety cabinet for 120 min at 18 to 24C.
Treatment of inoculated chicken wing: Each sample of inoculated chicken wing was placed into a 2.5L stomacher bag containing 500 mL of the tested solution for 10 minutes with intermittent 30 s-shakings at 0, 4, and 9 min. The tested solutions included city water, lactic acid solution (LA), peracetic acid solution (PA), and FreshRinse solution (FR). The treated chicken wing was immediately removed from the treatment solution after 10 min and placed into a sterilized Petri-dish with the marked side facing up. A pre-wet sterilized swab dipped in 10 mL Butterfield phosphate buffer with sodium thiosulfate was used to swab the marked area. After swabbing the cotton wool swab was immediately placed back into the 10 mL Butterfield phosphate buffer with sodium thiosulfate and mixed. One mL was immediately transferred from the aforementioned tube to a 9 mL Butterfield phosphate buffer. The total treatment time including the exposure time, the swabbing time, and the transfer time was 10.5 min. Each solution treatment was performed in duplications. The reduction for each solution treatment was compared to that of the city water treatment

For data set [2] the following is noted: 40° C.; cited from earlier work.
Data set [3] deals with Lactobacillus plantarum 14917. The data set can be described thus: Suspended Cells Challenge Test, 20 s residence time, no surfactant (Example 2). Format: cell-based. The procedure:
(§1) Synergism with respect to efficacy in a Suspended Cells Challenge Test at 20 s residence time with no surfactant.
(§2) The experimental treatment groups were tap water, chlorinated water, a FE sanitizer wash water (FE, FE sanitizer, a solution of peroxyacetic acid and lactic acid, as further specified in a given experiment).
(§3) The experimental protocol was as follows: • 1. Transfer 1.00 mL of a ˜10^8 cfu/g Lactobacillus plantarum (ATCC 14917) stock culture into a test tube containing 9.00 mL of treatment test solution • 2. Vortex the mixture for 15 s • 3. Stop the reaction by transferring 1 mL of the treated samples to 9 mL of Butterfield Phosphate Buffer • 4. Enumerate viable residual cells through serial dilutions and spread plating with 1-mL transfers • 5. […] Repeat Steps 1 to 5 two more times • 7. Repeat Steps 1 to 6 with flume water • 8. Repeat Steps 1 to 6 with chlorinated water • 9. Repeat Steps 1 to 8 with various levels of FE • 10. Repeat Steps 1 to 8 with various levels of lactic acid • 11. Repeat Steps 1 to 8 with various levels of peroxyacetic acid • 12. Repeat Steps 1 to 11 with Listeria innocua (ATCC33090)
(§4) • 1. Log […] is a measure of the percent of microorganisms that are inactivated during the disinfection process and is defined as Log Inactivation=Log10 (No/NT) where No is the initial influent concentration of viable microorganisms; NT is the concentration of surviving microorganisms. As M cfu/g=microbial population of stock culture; W cfu/g=microbial population in solution of “Water Treatment” and X cfu/g=microbial population in solution of “X Treatment,” the Log reduction caused by “Treatment X”=Log (w/x)

Data set [4] deals with Listeria innocua ATCC 33090. Described as above. The data set is classed as cell-based. The procedure: as §1, §2, §3, §4
The conditions of data set [5]: cited from earlier work.
Setting [6] is: Peroxyacetic acid 70 ppm, Lactic Acid 0 ppm.
The mark [7] stands for this setting: Peroxyacetic acid 75 ppm, Lactic Acid 0 ppm.
Where [8] appears, read: Peroxyacetic acid 80 ppm, Lactic Acid 0 ppm.
Setting [9] is: Peroxyacetic acid 0 ppm, Lactic Acid 2000 ppm.
Setting [10] is: Peroxyacetic acid 0 ppm, Lactic Acid 2500 ppm.
[11] abbreviates: Peroxyacetic acid 0 ppm, Lactic Acid 3000 ppm.

On to `CC(=O)OO` [Peroxyacetic acid, peroxyacetic acid], for which the “Log reduction, attached cells” value in the data set on Listeria innocua (Romaine, PAA 60 ppm, LA 0.0%) came to 0.6; in the data set on Listeria innocua (Romaine, PAA 70 ppm, LA 0.0%), 1.0; with Listeria innocua (Romaine, PAA 80 ppm, LA 0.0%), 1.7; in the data set with Listeria innocua (Spinach, PAA 60 ppm, LA 0.0%), 0.3; in the data set on Listeria innocua (Spinach, PAA 70 ppm, LA 0.0%), 0.5; in the data set on Listeria innocua (Spinach, PAA 80 ppm, LA 0.0%), 1.2. Also, the Log reductions is 0.6 in data set [1] (PA 40 ppm, LA 0 ppm); 0.5 in data set [1] (PA 60 ppm, LA 0 ppm); 1.0 in data set [1] (PA 80 ppm, LA 0 ppm). Further, in data set [2], the “apparent equilibrium constant, Kap” value is recorded as “about 2.21”. The “log reduction of suspended cells” value is 4.52 log10 in data set [3] (setting [6]); 5.59 log10 in data set [3] (setting [7]); 5.59 log10 in data set [3] (setting [8]); 1.40 log10 in data set [4] (setting [6]); 1.70 log10 in data set [4] (setting [7]); 1.80 log10 in data set [4] (setting [8]). Moreover, in data set [5], the “Oxidation Capacity” value is on record as 1.81 eV.
As to `CC(O)C(=O)O` (stereo not shown) [Lactic Acid, lactic acid], the “Log reduction, attached cells” value with Listeria innocua (Romaine, PAA 0 ppm, LA 0.6%) came out at 1.1; in the data set on Listeria innocua (Romaine, PAA 0 ppm, LA 0.9%), 1.4; with Listeria innocua (Romaine, PAA 0 ppm, LA 1.2%), 1.5; with Listeria innocua (Spinach, PAA 0 ppm, LA 0.6%) it was 0.1; in the data set on Listeria innocua (Spinach, PAA 0 ppm, LA 0.9%) it was 0.2; in the data set on Listeria innocua (Spinach, PAA 0 ppm, LA 1.2%), 0.2. Moreover, the Log reductions in data set [1] (PA 0 ppm, LA 5,000 ppm) is 0.3; in data set [1] (PA 0 ppm, LA 10,000 ppm), 0.7. Also, the “log reduction of suspended cells” value in data set [3] (setting [9]) was determined as 0.00 log10; in data set [3] (setting [10]), 0.02 log10; in data set [3] (setting [11]), 0.01 log10; in data set [4] (setting [9]) it was 0.08 log10; in data set [4] (setting [10]) it was 0.19 log10; in data set [4] (setting [11]), 0.05 log10.
